Laboratory results published in article PMC9607427, “Novel 7-Chloro-(4-thioalkylquinoline) Derivatives: Synthesis and Antiproliferative Activity through Inducing Apoptosis and DNA/RNA Damage” (Pharmaceuticals, 2022).

Assays:
[1] = tested on: A549 (lung adenocarcinoma); experiment: Cytotoxic MTS assay, A549; assay type: cell-based, human
Description: (§1) In vitro cytotoxic activity of final compounds 5–82 was evaluated after 3 days of incubation against eight cell lines derived from human solid tumors including lung (A549 cells) and colon (HCT116 and HCT116p53−/−) carcinomas, as well as leukemia cell lines (CCRF-CEM, CEM-DNR, K562, and K562-TAX) and osteosarcoma (U2OS cells). For comparison, non-malignant BJ and MRC-5 fibroblasts, and BJLD and MCR-5LD fibroblasts doxorubicin-resistant cell lines were used. Concentrations inhibiting the cell growth by 50% (IC50) were determined using a quantitative metabolic staining with 3-(4,5-dimethylthiazol-2yl)-5-(3-carboxymethoxyphenyl)-2-(4-sulfophenyl)-2H-tetrazolium (MTS) and are summarized in (Table 3).
(§2) Cytotoxic activity was determined by MTS assay following 72 h of incubation. IC50 is the lowest concentration that kills 50% of cells. The standard deviation in cytotoxicity assays is typically up to 20% of the average value. […] The tested cell lines: A549 (lung adenocarcinoma), BJ (noncancerous human fibroblasts from foreskin), BJLD (human lung fibroblast doxorubicin-resistant), CCRF-CEM (childhood T cell acute lymphoblastic leukemia), a daunorubicin-resistant subline of CCRF-CEM cells (CEM-DNR bulk), HCT116 (colorectal carcinoma), HCT116p53−/− (HCT116 with deleted p53 gene), K562 (chronic myeloid leukemia), K562-TAX (chronic myeloid leukemia paclitaxel-resistant subline), MRC-5 (noncancerous human lung fibroblasts), MRC-5LD (noncancerous human lung fibroblasts doxorubicin-resistant), and U2OS (osteosarcoma).
(§3) All cell lines were purchased from the American Tissue Culture Collection (ATCC). The A549 cell line is lung adenocarcinoma. MRC-5 and BJ cell lines were used as a non-tumor control and represent human fibroblasts. (MRC-5 LD and BJLD) are doxorubicin-resistant human lung fibroblast cell lines. The CCRF-CEM line is derived from T lymphoblastic leukemia, evincing high chemosensitivity, whereas K562 represent cells from an […] patient sample with bcr-abl translocation. The daunorubicin-resistant subline of CCRF-CEM cells (CEM-DNR bulk) and paclitaxel-resistant subline K562-TAX were selected in our laboratory by the cultivation of maternal cell lines in increasing concentrations of daunorubicin or paclitaxel, respectively. The CEM-DNR bulk cells overexpress MRP-1 and P-glycoprotein protein, whereas K562-TAX cells overexpress P-glycoprotein only. Both proteins belong to the family of ABC transporters and are involved in the primary and/or acquired multidrug-resistance phenomenon. The U2OS cell line is derived from osteosarcoma, HCT116 is a colorectal tumor cell line and its p53 gene knock-down counterpart (HCT116p53−/−, Horizon Discovery Ltd., Cambridge, UK) is a model of human cancers with p53 mutation frequently associated with poor prognosis. The cells were maintained in nunc/corning 80 cm^2 plastic tissue culture flasks and cultured in a cell culture medium according to ATCC or Horizon recommendations (DMEM/RPMI 1640 with 5 g/L glucose, 2 mM glutamine, 100 U/mL penicillin, […], 10% fetal calf serum, and NaHCO3).
(§4) The activity of compounds was determined using a standard 3-(4,5-dimethylthiazol-2-yl)-5-(3-carboxymethoxyphenyl)-2-(4-sulfophenyl)-2H-tetrazolium (MTS) and it was performed at the Institute of Molecular and Translational Medicine by a robotic platform (High-ResBiosolutions). Cell suspensions were prepared and diluted according to the particular cell type and the expected target cell density (25,000–35,000 cells/mL based on cell growth characteristics). Cells were added by automatic pipettor (30 µL) into 384-well microtiter plates. All tested compounds were dissolved in 100% DMSO and four-fold dilutions of the intended test concentration were added in 0.15 µL aliquots at time zero to the microtiter plate wells by the echo acoustic non-contact liquid handler Echo550 (Labcyte). […]

[2] = tested on: BJ (noncancerous human fibroblasts from foreskin); experiment: Cytotoxic MTS assay, BJ; assay type: cell-based
Description: as §1, §2, §3, §4

[3] = tested on: BJLD (human lung fibroblast doxorubicin-resistant); experiment: Cytotoxic MTS assay, BJLD; assay type: cell-based
Description: as §1, §2, §3, §4

[4] = tested on: CCRF-CEM (childhood T cell acute lymphoblastic leukemia); experiment: Cytotoxic MTS assay, CCRF-CEM; assay type: cell-based, human
Description: as §1, §2, §3, §4

[5] = tested on: CEM-DNR bulk (daunorubicin-resistant subline of CCRF-CEM cells); experiment: Cytotoxic MTS assay, CEM-DNR; assay type: cell-based, human
Description: as §1, §2, §3, §4

[6] = tested on: HCT116 (colorectal carcinoma); experiment: Cytotoxic MTS assay, HCT116; assay type: cell-based, human
Description: as §1, §2, §3, §4

[7] = tested on: HCT116p53−/− (HCT116 with deleted p53 gene); experiment: Cytotoxic MTS assay, HCT116p53−/−; assay type: cell-based, human
Description: as §1, §2, §3, §4

[8] = tested on: K562 (chronic myeloid leukemia); experiment: Cytotoxic MTS assay, K562; assay type: cell-based, human
Description: as §1, §2, §3, §4

[9] = tested on: K562-TAX (chronic myeloid leukemia paclitaxel-resistant subline); experiment: Cytotoxic MTS assay, K562-TAX; assay type: cell-based, human
Description: as §1, §2, §3, §4

[10] = tested on: MRC-5 (noncancerous human lung fibroblasts); experiment: Cytotoxic MTS assay, MRC-5; assay type: cell-based
Description: as §1, §2, §3, §4

[11] = tested on: MRC-5LD (noncancerous human lung fibroblasts doxorubicin-resistant); experiment: Cytotoxic MTS assay, MRC-5LD; assay type: cell-based
Description: as §1, §2, §3, §4

[12] = tested on: U2OS (osteosarcoma); experiment: Cytotoxic MTS assay, U2OS; assay type: cell-based, human
Description: as §1, §2, §3, §4

Question: Which results are given for COc1cc(C(=O)OCCCS(=O)(=O)c2cc[n+]([O-])c3cc(Cl)ccc23)cc(OC)c1OC [Compound 77, 3-[(N-Oxide 7-chloroquinolin-4-yl)sulfonyl]propyl-3,4,5-trimethoxybenzoate]?
Answer: IC50 [1]: 9.02 µM; IC50 [2]: 28.6 µM; IC50 [3]: 21.6 µM; IC50 [4]: 1.58 µM; IC50 [5]: 12 µM; IC50 [6]: 6.51 µM; IC50 [7]: 6.75 µM; IC50 [8]: 7.5 µM; IC50 [9]: 10.9 µM; IC50 [10]: 25.6 µM; IC50 [11]: 20.1 µM; IC50 [12]: 7.81 µM

Question: Which results are given for O=C(OCCCS(=O)(=O)c1cc[n+]([O-])c2cc(Cl)ccc12)c1ccc(C(F)(F)F)cc1 [Compound 82, 3-[(N-Oxide 7-chloroquinolin-4-yl)sulfonyl]propyl-4-(trifluoromethyl)benzoate]?
Answer: IC50 [1]: 6.66 µM; IC50 [2]: 23.5 µM; IC50 [3]: 13.9 µM; IC50 [4]: 1.05 µM; IC50 [5]: 3.46 µM; IC50 [6]: 4.9 µM; IC50 [7]: 6.59 µM; IC50 [8]: 6.24 µM; IC50 [9]: 4.01 µM; IC50 [10]: 23.7 µM; IC50 [11]: 19.8 µM; IC50 [12]: 5.05 µM

Question: How did the IC50 [1] turn out when Cc1ccc([N+](=O)[O-])c(C(=O)OCCCS(=O)(=O)c2cc[n+]([O-])c3cc(Cl)ccc23)c1 [Compound 80, 3-[(N-Oxide 7-chloroquinolin-4-yl)sulfonyl]propyl-5-methyl-2-nitrobenzoate] was run?
Answer: Its IC50 is 6.44 µM.

Question: What about the IC50 [2] of the same compound?
Answer: The IC50 was 22.2 µM.

Question: What about the IC50 [3] of the same compound?
Answer: Its IC50 is 15.9 µM.

Question: And the IC50 [4]?
Answer: The IC50 was 1.49 µM.

Question: And the IC50 [5]?
Answer: Its IC50 is 6.78 µM.

Question: What about the IC50 [6] of the same compound?
Answer: Its IC50 is 4.61 µM.

Question: What about the IC50 [7] of the same compound?
Answer: The IC50 was 6 µM.

Question: What about the IC50 [8] of the same compound?
Answer: The IC50 was 6.75 µM.

Question: And the IC50 [9]?
Answer: The IC50 was 6 µM.

Question: What about the IC50 [10] of the same compound?
Answer: Its IC50 is 20 µM.

Question: What about the IC50 [11] of the same compound?
Answer: Its IC50 is 16.3 µM.

Question: What about the IC50 [12] of the same compound?
Answer: The IC50 was 5.74 µM.

Question: Which IC50 [1] does the source give for COc1cc(OC)c(C(=O)OCCCS(=O)(=O)c2cc[n+]([O-])c3cc(Cl)ccc23)cc1OC [Compound 76, 3-[(N-Oxide 7-chloroquinolin-4-yl)sulfonyl]propyl-2,4,5-trimethoxybenzoate] here?
Answer: The IC50 was 11.4 µM.

Question: And the IC50 [2]?
Answer: Its IC50 is 35.7 µM.

Question: And the IC50 [3]?
Answer: The IC50 was 24.4 µM.

Question: And the IC50 [4]?
Answer: The IC50 was 2.22 µM.

Question: And the IC50 [5]?
Answer: Its IC50 is 18.1 µM.

Question: And the IC50 [6]?
Answer: The IC50 was 7.96 µM.

Question: And the IC50 [7]?
Answer: Its IC50 is 8.66 µM.

Question: What about the IC50 [8] of the same compound?
Answer: The IC50 was 8.77 µM.

Question: What about the IC50 [9] of the same compound?
Answer: Its IC50 is 19.9 µM.

Question: And the IC50 [10]?
Answer: The IC50 was 22.5 µM.

Question: What about the IC50 [11] of the same compound?
Answer: Its IC50 is 19.6 µM.

Question: And the IC50 [12]?
Answer: The IC50 was 9.33 µM.

Question: With COc1cccc(C(=O)OCCS(=O)(=O)c2cc[n+]([O-])c3cc(Cl)ccc23)c1OC [Compound 64, 2-[(N-Oxide 7-chloroquinolin-4-yl)sulfonyl]ethyl-2,3-dimethoxybenzoate] as the compound, how does the IC50 [1] read?
Answer: The IC50 was 28.4 µM.

Question: And the IC50 [2]?
Answer: The IC50 was 9.19 µM.

Question: And the IC50 [3]?
Answer: The IC50 was 8.95 µM.

Question: What about the IC50 [4] of the same compound?
Answer: Its IC50 is 0.71 µM.

Question: And the IC50 [5]?
Answer: The IC50 was 8.99 µM.

Question: What about the IC50 [6] of the same compound?
Answer: Its IC50 is 8.18 µM.

Question: What about the IC50 [7] of the same compound?
Answer: The IC50 was 7.68 µM.

Question: What about the IC50 [8] of the same compound?
Answer: The IC50 was 5.51 µM.

Question: And the IC50 [9]?
Answer: The IC50 was 5.65 µM.

Question: What about the IC50 [10] of the same compound?
Answer: Its IC50 is 6.08 µM.

Question: What about the IC50 [11] of the same compound?
Answer: Its IC50 is 3.28 µM.

Question: And the IC50 [12]?
Answer: The IC50 was 7.43 µM.

Question: What does the source list for COc1ccc(OC)c(C(=O)OCCCS(=O)(=O)c2cc[n+]([O-])c3cc(Cl)ccc23)c1 [Compound 75, 3-[(N-Oxide 7-chloroquinolin-4-yl)sulfonyl]propyl-2,5-dimethoxybenzoate]?
Answer: IC50 [1]: 7.28 µM; IC50 [2]: 26.6 µM; IC50 [3]: 17.8 µM; IC50 [4]: 1.45 µM; IC50 [5]: 7.22 µM; IC50 [6]: 5.37 µM; IC50 [7]: 6.86 µM; IC50 [8]: 7.14 µM; IC50 [9]: 9.56 µM; IC50 [10]: 21.5 µM; IC50 [11]: 18.9 µM; IC50 [12]: 6.4 µM

Question: For COc1ccccc1C(=O)OCCCS(=O)(=O)c1cc[n+]([O-])c2cc(Cl)ccc12 [Compound 78, 3-[(N-Oxide 7-chloroquinolin-4-yl)sulfonyl]propyl-2-methoxybenzoate], which IC50 [1] is on record?
Answer: The IC50 was 7.75 µM.

Question: And the IC50 [2]?
Answer: Its IC50 is 25 µM.

Question: What about the IC50 [3] of the same compound?
Answer: The IC50 was 19.7 µM.

Question: And the IC50 [4]?
Answer: Its IC50 is 2.63 µM.

Question: What about the IC50 [5] of the same compound?
Answer: The IC50 was 9.18 µM.

Question: What about the IC50 [6] of the same compound?
Answer: The IC50 was 5.64 µM.

Question: What about the IC50 [7] of the same compound?
Answer: The IC50 was 6.99 µM.

Question: And the IC50 [8]?
Answer: The IC50 was 7.37 µM.

Question: What about the IC50 [9] of the same compound?
Answer: Its IC50 is 8.78 µM.

Question: What about the IC50 [10] of the same compound?
Answer: The IC50 was 22.6 µM.

Question: And the IC50 [11]?
Answer: Its IC50 is 19.5 µM.

Question: What about the IC50 [12] of the same compound?
Answer: Its IC50 is 7.18 µM.
